Literature values as cited in patent US20050143441A1, “Novel medical combination treatment of obesity involving 4,5-dihydro-1H-pyrazole derivatives having CB1-antagonistic activity” (priority 2003, published 2005).
Blank lines part the entries; values can stand above or below the compound they belong to.

What was measured:
[1] = test system: excretion of fat from the diet; conditions: healthy male volunteers, 5 days
[2] = in vivo
[3] = clinically obese patients
[4] = test system: carragheenin induced swelling; conditions: mice
[5] = biological target: T1, porcine pancreatic lipase (Sus scrofa, UniProt P00591)
T1 sequence (P00591 1-450): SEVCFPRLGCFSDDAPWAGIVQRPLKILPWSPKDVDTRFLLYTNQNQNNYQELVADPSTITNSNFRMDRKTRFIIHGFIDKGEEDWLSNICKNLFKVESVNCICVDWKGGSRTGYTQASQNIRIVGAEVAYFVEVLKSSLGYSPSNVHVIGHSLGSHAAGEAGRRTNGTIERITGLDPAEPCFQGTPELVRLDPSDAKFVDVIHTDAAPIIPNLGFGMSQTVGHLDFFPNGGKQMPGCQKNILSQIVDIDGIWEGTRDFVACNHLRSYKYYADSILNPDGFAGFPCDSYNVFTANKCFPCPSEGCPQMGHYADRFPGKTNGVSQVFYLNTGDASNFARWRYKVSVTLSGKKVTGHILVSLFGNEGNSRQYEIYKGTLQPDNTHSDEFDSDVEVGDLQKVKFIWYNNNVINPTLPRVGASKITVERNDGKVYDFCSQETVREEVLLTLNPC

[6] = test system: plasma lipases; conditions: relative to THL

Structure (SMILES): CCCCCCCCCCCCCCCCOc1nc2ccc(C)cc2c(=O)o1 [ATL-962, 2-hexadecyloxy-6-methyl-4H-3,1-benzoxazin-4-one]
- safety and tolerability, phase Ib [1]: safe and well tolerated
- toxicity in preclinical studies [2]: no toxicity was observed
- safety and tolerability, phase IIb [3]: safe and generally well tolerated

Structure (SMILES): CC[C@@H](C)[C@@H](O)[C@H](C)C(=O)[C@H](C)/C=C(\C)C[C@H](C)[C@@H]1OC(=O)[C@H]1CC [Ebelactone B]
- carragheenin induced swelling [4]: reduces carragheenin induced swelling

- mode of inhibition of pancreatic lipase (irreversibility) [5]: irreversibly inhibit pancreatic lipase
Structure (SMILES): CCCCCCC[C@@H](C[C@@H]1OC(=O)[C@H]1CCCCCCCC(C)C)OC(=O)[C@H](C)NC=O [Panclicin A]
- potency against plasma lipases compared with THL [6]: same potency as THL

- mode of inhibition of pancreatic lipase (irreversibility) [5]: irreversibly inhibit pancreatic lipase
Structure (SMILES): CCCCCCC[C@@H](C[C@@H]1OC(=O)[C@H]1CCCCCCCC(C)C)OC(=O)CNC=O [Panclicin C]

- mode of inhibition of pancreatic lipase (irreversibility) [5]: irreversibly inhibit pancreatic lipase
Structure (SMILES): CCCCCCCCCC[C@@H]1C(=O)O[C@H]1C[C@H](CCCCCCC)OC(=O)CNC=O [Panclicin D]

- mode of inhibition of pancreatic lipase (irreversibility) [5]: irreversibly inhibit pancreatic lipase
Structure (SMILES): CCCCCCCCCCCC[C@@H]1C(=O)O[C@H]1C[C@H](CCCCCCC)OC(=O)CNC=O [Panclicin E]

Structure (SMILES): CCCCCCCCCCC[C@@H](C[C@@H]1OC(=O)[C@H]1CCCCCC)OC(=O)[C@H](CC(C)C)NC=O [tetrahydrolipstatin, (2S,3S,5S)-5-((S)-2-4-methylvaleryloxy)-2-heyl-3-hydroxy-hexadecanoic acid lactone]
- fat excreted, average ([1]; orlistat 120 mg tid): 5.6 (+/−3.8) g/day
